Measured values published in ChEMBL document CHEMBL1909046, “DrugMatrix in vitro pharmacology data”.

What was measured:
[1] = biological target: T1, Neutrophil elastase (Homo sapiens, UniProt P08246); type: tissue-based;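 further: inhibition of neutrophil elastase enzyme activity, measured with a p-nitroanilide-linked peptide substrate; in other assays of this panel Not Active means under 50% inhibition at 10 µM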
T1 sequence (P08246 whole entry): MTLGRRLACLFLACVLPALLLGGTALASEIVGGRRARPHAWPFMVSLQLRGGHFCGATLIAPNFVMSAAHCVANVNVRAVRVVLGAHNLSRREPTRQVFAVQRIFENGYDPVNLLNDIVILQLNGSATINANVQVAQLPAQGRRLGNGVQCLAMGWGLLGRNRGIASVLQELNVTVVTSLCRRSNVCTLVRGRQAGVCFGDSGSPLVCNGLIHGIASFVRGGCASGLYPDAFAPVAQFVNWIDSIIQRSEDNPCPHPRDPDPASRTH

[2] = biological target: Cytochrome P450 3A4 (Homo sapiens, UniProt P08684); conditions: bti-tn-5b1-4; further: in other assays of this panel Not Active means under 50% inhibition at 10 µM
[3] = DRUGMATRIX: Glutamate, NMDA, Agonism radioligand binding (ligand: [3H] CGP-39653); type: cell membranes, Rattus norvegicus, Wistar, Cerebral cortex, Membrane; conditions: Not Active = under 50% inhibition at 10 µM
[4] = DRUGMATRIX: GABAA, Muscimol, Central radioligand binding (ligand: [3H] Muscimol); type: cell membranes, Rattus norvegicus, Wistar, Brain, Membrane; conditions: Not Active = under 50% inhibition at 10 µM
[5] = biological target: Epidermal growth factor receptor (Homo sapiens, UniProt P00533); assay: DRUGMATRIX: Protein Tyrosine Kinase, EGF Receptor enzyme inhibition (substrate: Poly(Glu:Tyr)); type: cell-based, Insect cells; conditions: Not Active = under 50% inhibition at 10 µM
[6] = biological target: Mu-type opioid receptor (Homo sapiens, UniProt P35372); assay: DRUGMATRIX: Opiate mu (OP3, MOP) radioligand binding (ligand: [3H] Diprenorphine); type: cell membranes, CHO-K1, Membrane; conditions: cho-k1; Not Active = under 50% inhibition at 10 µM
[7] = DRUGMATRIX: Leukotriene, BLT (LTB4) radioligand binding (ligand: [3H]LTB4); type: cell membranes, Membrane; conditions: u-937; Not Active = under 50% inhibition at 10 µM
[8] = biological target: T2, Alpha-1A adrenergic receptor (Rattus norvegicus, UniProt P43140); assay: DRUGMATRIX: Alpha-1A adrenergic receptor radioligand binding (ligand: prazosin); type: cell membranes, Wistar, Submaxillary gland, Membrane; conditions: Not Active = under 50% inhibition at 10 µM
T2 sequence (P43140 whole entry): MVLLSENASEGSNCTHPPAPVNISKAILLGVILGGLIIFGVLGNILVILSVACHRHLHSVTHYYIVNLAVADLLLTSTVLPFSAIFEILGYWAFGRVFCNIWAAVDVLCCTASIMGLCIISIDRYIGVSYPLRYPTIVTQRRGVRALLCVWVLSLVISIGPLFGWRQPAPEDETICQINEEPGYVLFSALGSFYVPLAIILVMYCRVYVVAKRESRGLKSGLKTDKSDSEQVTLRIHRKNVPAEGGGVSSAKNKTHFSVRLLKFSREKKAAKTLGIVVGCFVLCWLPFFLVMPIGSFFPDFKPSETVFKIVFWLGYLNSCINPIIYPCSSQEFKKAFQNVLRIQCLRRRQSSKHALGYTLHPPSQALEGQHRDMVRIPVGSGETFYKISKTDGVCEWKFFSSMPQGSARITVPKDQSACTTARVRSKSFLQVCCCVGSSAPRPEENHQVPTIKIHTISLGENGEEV

Mu-type opioid receptor, sequence (P35372 whole entry): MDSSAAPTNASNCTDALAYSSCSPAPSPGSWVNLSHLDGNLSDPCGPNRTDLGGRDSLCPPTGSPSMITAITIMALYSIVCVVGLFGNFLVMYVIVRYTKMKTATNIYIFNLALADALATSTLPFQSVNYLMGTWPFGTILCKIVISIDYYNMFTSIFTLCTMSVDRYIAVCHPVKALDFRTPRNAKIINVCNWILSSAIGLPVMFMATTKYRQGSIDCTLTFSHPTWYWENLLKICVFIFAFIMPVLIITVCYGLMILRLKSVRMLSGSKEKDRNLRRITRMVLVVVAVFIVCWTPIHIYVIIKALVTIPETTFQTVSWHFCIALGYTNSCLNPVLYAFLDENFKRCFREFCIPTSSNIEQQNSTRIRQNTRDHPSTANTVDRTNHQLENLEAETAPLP
Cytochrome P450 3A4, sequence (P08684 whole entry): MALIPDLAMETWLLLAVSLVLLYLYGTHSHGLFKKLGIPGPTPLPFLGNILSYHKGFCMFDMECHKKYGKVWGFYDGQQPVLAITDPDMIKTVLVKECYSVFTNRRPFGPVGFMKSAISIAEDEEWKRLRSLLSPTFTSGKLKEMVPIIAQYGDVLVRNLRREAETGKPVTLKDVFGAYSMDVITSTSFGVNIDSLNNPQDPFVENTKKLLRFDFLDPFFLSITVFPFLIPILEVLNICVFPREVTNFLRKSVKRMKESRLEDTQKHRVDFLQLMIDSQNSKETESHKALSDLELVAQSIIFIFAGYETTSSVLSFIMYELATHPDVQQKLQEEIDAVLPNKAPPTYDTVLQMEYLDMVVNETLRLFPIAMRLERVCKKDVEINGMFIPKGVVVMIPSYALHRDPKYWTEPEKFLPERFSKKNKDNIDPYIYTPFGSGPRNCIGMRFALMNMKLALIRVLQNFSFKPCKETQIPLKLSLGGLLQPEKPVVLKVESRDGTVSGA
Epidermal growth factor receptor, sequence (P00533 whole entry): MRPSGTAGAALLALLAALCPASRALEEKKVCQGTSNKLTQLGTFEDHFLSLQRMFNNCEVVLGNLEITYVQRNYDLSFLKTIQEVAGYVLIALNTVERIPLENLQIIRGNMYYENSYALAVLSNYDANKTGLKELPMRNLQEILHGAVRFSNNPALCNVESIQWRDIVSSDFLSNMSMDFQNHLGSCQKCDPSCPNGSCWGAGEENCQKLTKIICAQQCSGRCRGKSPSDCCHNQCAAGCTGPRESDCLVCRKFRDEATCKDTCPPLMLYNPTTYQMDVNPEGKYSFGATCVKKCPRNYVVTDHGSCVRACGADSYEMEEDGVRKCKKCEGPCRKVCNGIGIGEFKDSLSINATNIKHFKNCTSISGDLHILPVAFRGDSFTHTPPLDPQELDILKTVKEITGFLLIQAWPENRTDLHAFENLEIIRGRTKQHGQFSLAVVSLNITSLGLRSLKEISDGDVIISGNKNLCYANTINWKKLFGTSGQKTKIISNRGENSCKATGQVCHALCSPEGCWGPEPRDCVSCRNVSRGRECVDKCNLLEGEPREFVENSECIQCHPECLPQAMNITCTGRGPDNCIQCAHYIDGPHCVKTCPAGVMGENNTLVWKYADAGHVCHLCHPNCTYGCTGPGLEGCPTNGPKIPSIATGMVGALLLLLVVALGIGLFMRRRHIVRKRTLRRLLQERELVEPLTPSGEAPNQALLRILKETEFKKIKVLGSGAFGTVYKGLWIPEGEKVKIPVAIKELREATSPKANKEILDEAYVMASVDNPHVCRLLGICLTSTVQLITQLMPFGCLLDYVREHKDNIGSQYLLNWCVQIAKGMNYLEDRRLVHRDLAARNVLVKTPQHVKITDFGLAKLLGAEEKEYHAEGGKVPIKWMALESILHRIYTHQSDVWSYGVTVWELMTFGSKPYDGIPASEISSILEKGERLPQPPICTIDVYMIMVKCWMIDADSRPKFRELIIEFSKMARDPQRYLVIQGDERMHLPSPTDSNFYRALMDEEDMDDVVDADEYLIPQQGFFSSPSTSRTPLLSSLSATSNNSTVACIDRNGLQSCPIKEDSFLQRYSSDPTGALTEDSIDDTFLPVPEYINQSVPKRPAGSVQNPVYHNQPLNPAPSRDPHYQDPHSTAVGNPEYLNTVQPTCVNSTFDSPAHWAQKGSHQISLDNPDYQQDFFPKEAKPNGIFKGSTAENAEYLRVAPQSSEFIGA

SMILES	IC50 [1]	IC50 [2]	Ki [2]	IC50 [3]	Ki [3]	IC50 [4]	Ki [4]	IC50 ([5]; insect cells)	IC50 [6]	IC50 [7]	Ki [7]	IC50 [8]	IC50 ([5]; read-out: IC50)	IC50 ([8]; read-out: IC50)	Ki ([8]; read-out: Ki)
CNS(=O)(=O)Cc1ccc2[nH]cc(CCN(C)C)c2c1	Not Active	Not Active	Not Active	Not Active	Not Active	Not Active	Not Active	Not Active	Not Active	Not Active	Not Active	Not Active			
CCCc1nn(C)c2c(=O)[nH]c(-c3cc(S(=O)(=O)N4CCN(C)CC4)ccc3OCC)nc12	Not Active	Not Active	Not Active	Not Active	Not Active	Not Active	Not Active	Not Active	Not Active	Not Active	Not Active	Not Active			
COc1ccc(/C=C/C(=O)Nc2ccccc2C(=O)O)cc1OC	Not Active	Not Active	Not Active	Not Active	Not Active	Not Active	Not Active	Not Active	Not Active	Not Active	Not Active	Not Active			
CCOC(N)=O	Not Active	Not Active	Not Active	Not Active	Not Active	Not Active	Not Active	Not Active	Not Active	Not Active	Not Active	Not Active			
CC(=O)Nc1nnc(S(N)(=O)=O)s1 [ACETAZOLAMIDE]	Not Active	Not Active	Not Active					Not Active	Not Active			Not Active			
CC1=C(CC(=O)O)c2cc(F)ccc2/C1=C\c1ccc(S(C)(=O)=O)cc1 [EXISULIND]	Not Active	Not Active	Not Active	Not Active	Not Active	Not Active	Not Active	Not Active	Not Active	Not Active	Not Active	Not Active			
CC(C)OC(=O)C(C)(C)Oc1ccc(C(=O)c2ccc(Cl)cc2)cc1 [FENOFIBRATE]	Not Active	Not Active	Not Active					Not Active	Not Active			Not Active			
CN1C2CCCC1CC(NC(=O)c1nn(C)c3ccccc13)C2 (centres undefined) [GRANISETRON]	Not Active	Not Active	Not Active					Not Active	Not Active			Not Active			
Nc1nc2c(c(=O)[nH]1)N(C=O)C(CNc1ccc(C(=O)N[C@@H](CCC(=O)O)C(=O)O)cc1)CN2 (some centres undefined) [LEUCOVORIN]	Not Active	Not Active	Not Active	Not Active	Not Active	Not Active	Not Active	Not Active	Not Active	Not Active	Not Active	Not Active			
C[C@@H](O)[C@H]1C(=O)N2C(C(=O)O)=C(S[C@@H]3CN[C@H](C(=O)N(C)C)C3)[C@H](C)[C@H]12 [MEROPENEM]	Not Active	Not Active	Not Active	Not Active	Not Active	Not Active	Not Active	Not Active	Not Active	Not Active	Not Active	Not Active			
CC[C@@H](CO)NC(=O)[C@@H]1C=C2c3cccc4c3c(cn4C)C[C@H]2N(C)C1 [METHYSERGIDE]	Not Active	Not Active	Not Active					Not Active	Not Active			Not Active			
CCN(CC)CC#CCOC(=O)C(O)(c1ccccc1)C1CCCCC1 (centres undefined) [OXYBUTYNIN]	Not Active	Not Active	Not Active					Not Active	Not Active			Not Active			
O=P(O)(O)C(O)(Cc1cccnc1)P(=O)(O)O [RISEDRONIC ACID]	Not Active	Not Active	Not Active	Not Active	Not Active	Not Active	Not Active	Not Active	Not Active	Not Active	Not Active	Not Active			
C#CCN(C)[C@H](C)Cc1ccccc1 [SELEGILINE]	Not Active	Not Active	Not Active	Not Active	Not Active	Not Active	Not Active	Not Active	Not Active	Not Active	Not Active	Not Active			
CN[C@@H]1[C@H](O)[C@H](NC)[C@H]2O[C@@]3(O)C(=O)C[C@@H](C)O[C@H]3O[C@@H]2[C@H]1O [SPECTINOMYCIN]	Not Active	Not Active	Not Active	Not Active	Not Active	Not Active	Not Active	Not Active	Not Active	Not Active	Not Active	Not Active			
Nc1ccc(S(=O)(=O)Nc2ncccn2)cc1 [SULFADIAZINE]	Not Active	Not Active	Not Active	Not Active	Not Active	Not Active	Not Active	Not Active	Not Active	Not Active	Not Active	Not Active			
COc1ncnc(NS(=O)(=O)c2ccc(N)cc2)c1OC [SULFADOXINE]	Not Active	Not Active	Not Active	Not Active	Not Active	Not Active	Not Active	Not Active	Not Active	Not Active	Not Active	Not Active			
Nc1ccc(S(=O)(=O)Nc2nccs2)cc1 [SULFATHIAZOLE]	Not Active	Not Active	Not Active	Not Active	Not Active	Not Active	Not Active	Not Active	Not Active	Not Active	Not Active	Not Active			
C[C@]12CC[C@H]3[C@@H](CCC4=CC(=O)CC[C@@]43C)[C@@H]1CC[C@@H]2O [TESTOSTERONE]	Not Active	Not Active	Not Active	Not Active	Not Active	Not Active	Not Active	Not Active	Not Active	Not Active	Not Active	Not Active			
C[C@@H]1C[C@H]2[C@@H]3CCC4=CC(=O)C=C[C@]4(C)C3=CC[C@]2(C)[C@H]1C(=O)CN1CCN(c2cc(N3CCCC3)nc(N3CCCC3)n2)CC1 [TIRILAZAD]	Not Active	Not Active	Not Active	Not Active	Not Active	Not Active	Not Active		Not Active	Not Active	Not Active	Not Active	20.4 µM		
NC[C@H]1O[C@H](O[C@H]2[C@H](O)[C@@H](O[C@H]3O[C@H](CO)[C@@H](O)[C@H](N)[C@H]3O)[C@H](N)C[C@@H]2N)[C@H](N)C[C@@H]1O [TOBRAMYCIN]	Not Active	Not Active	Not Active	Not Active	Not Active	Not Active	Not Active	Not Active	Not Active	Not Active	Not Active	Not Active			
O=c1n(CCCN2CCN(c3cccc(Cl)c3)CC2)nc2ccccn12 [TRAZODONE]	Not Active	Not Active	Not Active					Not Active	Not Active					0.117 µM	0.047 µM
COc1ccc(CN2CCNCC2)c(OC)c1OC [TRIMETAZIDINE]	Not Active			Not Active	Not Active	Not Active	Not Active	Not Active	Not Active	Not Active	Not Active	Not Active			
